Test results from patent publication US20110264026A1, “Azo Derivatives and Uses Thereof in Phototherapy” (priority 2008, published 2011).
pIC50: −log10 of the molar value.

Key:
Absorption maximum = assay type: physicochemical
[1] = test system: human myeloid leukemia U937 cell line; experiment: Cell viability of tumor cells exposed to photosensitizer and electromagnetic radiation; assay type: cell-based; details: for viability at 13 µM: 13 μM compound; for viability at 25 µM: 25 μM compound; for viability at 6 µM: 6 μM compound
Protocol: A general procedure is carried out for measuring cell viability upon exposure of tumor cells to the fused ring diaza compound of Formula (FX33) and electromagnetic radiation. The compound of Formula (FX33) has an absorption maxima (λmax) of 334 nm. The cell viability measurements are carried out using human myeloid leukemia U937 cell line by the standard WST-1 assay. In this procedure, U397 Leukemia cells (0.5×10^6) are plated in standard T-25 cell culture flasks, and are exposed to four controls and a series of test conditions corresponding to a range of fused ring diaza compound concentrations, summarized in Table 1.
The compound of formula (FX33) is dissolved in 20 to 30% DMSO at an initial concentration of 2-4 mM and serially diluted to the final desired value such that the amount of DMSO exposed to the cells is below 0.5%. The cells are incubated at 37° C. with various concentrations of the fused ring diaza compound photosensitizer for about 30 minutes prior to exposure to electromagnetic radiation. […] It should be noted that in the present study, the electromagnetic radiation source is not optimized with respect to power and wavelength. The viability of cells is assessed after 24 hours following exposure to electromagnetic radiation. The electromagnetic radiation source is a B-100SP High Intensity Lamp from UVP. Once exposure is complete, cells are processed to determine percent viability using Hank's Balanced Salt Solution (HBSS), Trypan blue stain, and a hemacytometer to count live and dead cells. The number of viable cells is determined and percent viability is determined using:
FIG. 4 provides cell viability results for test conditions wherein cells are exposed to electromagnetic radiation and the compound of formula (FX33) for concentrations of 6 μM, 13 μM and 25 μM. […] Cells are incubated in the absence of the compound of formula (FX33) (0 μM) and with the compound of formula (FX33) at concentrations of 6 μM, 13 μM and 25 μM. The cells are exposed to electromagnetic radiation from a B-100SP High Intensity Lamp for 0, 5, 10, and 20 minutes. […] In the presence of 13 μM of the diaza compound of formula (FX33), cells have about 94% viability with electromagnetic radiation exposure for 5 minutes, about 95% viability with electromagnetic radiation exposure for 10 minutes, and about 58% viability with electromagnetic radiation exposure for 20 minutes. In the presence of 25 μM of the compound of formula (FX33), cells have about 86% viability with electromagnetic radiation exposure for 5 minutes, about 30% viability with electromagnetic radiation exposure for 10 minutes, and about 8% viability with electromagnetic radiation exposure for 20 minutes.

[2] = Homo sapiens, U-937, 5 min, electromagnetic radiation exposure 5 minutes
[3] = Homo sapiens, U-937, 10 min, electromagnetic radiation exposure 10 minutes
[4] = Homo sapiens, U-937, 20 min, electromagnetic radiation exposure 20 minutes

absorption maxima (λmax) (Absorption maximum): 334 nm
Compound: COc1cc2c3c(cc(=O)oc3c1OC)NN=C2 [formula (FX33)]
effect on cell viability (in words) ([1]; 6, 13 and 25 μM, exposure 0, 5, 10 and 20 minutes): concentration-dependent and electromagnetic radiation exposure time-dependent decreases in cell viability
viability at 13 µM [1, 2]: ~94%
viability at 25 µM [1, 2]: ~86%
viability at 6 µM [1, 3]: 100%
viability at 13 µM [1, 3]: ~95%
viability at 25 µM [1, 3]: ~30%
viability at 6 µM [1, 4]: ~92%
viability at 13 µM [1, 4]: ~58%
viability at 25 µM [1, 4]: ~8%
pIC50 ([1]; Homo sapiens, U-937, 20 min, cells exposed to electromagnetic radiation and photosensitizer for 20 minutes, read-out: VC50/20 (concentration at which 50% decrease in cell viability is observed)): 5.28
viability at 6 µM ([1]; Homo sapiens, U-937, electromagnetic radiation exposure 5 minutes (B-100SP lamp, 325-425 nm), viability assessed after 24 hours): 100%
